For one assay, the system named is pERK in MKN1 cells. The experiment in a line: pERK inhibition, In-Cell Western (LI-COR Odyssey), MKN1 cells. To be noted: MKN1 or H358 cells (table does not say which), 0.5-1 hour incubation, read-out: IC50 (nM), pERK inhibition. Type of assay: cell-based. Here is the method: This Example illustrates that exemplary compounds of the present invention prevent KRas-mediated GTP nucleotide exchange mediated by SOS1 to inhibit KRas activity thereby inhibiting the generation of the downstream effector pERK.
MKN1 cells (15,000/w) or H358 (30,000/w) were seeded in a black clear flat bottom 96-well cell culture plate (Corning, #3904) and incubated at 37° C. overnight. Assay day 1, cells were dosed with compounds of Formula (I) with a 10 μm starting concentration and serially diluted 3× for a total of 9 concentrations. The cells were incubated for approximately 0.5-1 hour with the compounds solubilized in DMSO at 37° C. Cells were immediately fixed by adding 50 μL of 4% formaldehyde to all wells in a fume hood and the plates were incubated for 20 minutes at room temperature. The formaldehyde was discarded from the plates and 150 μL of ice-cold methanol was added to permeabilize the cells for 10 minutes at −20° C. The methanol was discarded from each of the plates and any liquid remaining in the plate by tapping the plate against paper towels. Cells were then blocked with 150 μL of Odyssey blocking buffer (LI-COR Biosciences #927-50010) using 0.05% Tween for 1 hour at room temperature on a shaker. The blocking buffer was discarded and 50 μL of primary antibodies pERK (cell signaling Technology #9101L; Rabbit, 1:500) and GapDH (Millipore #MAB34; Mouse, 1:5000) diluted in Odyssey blocking buffer was added. The plates were incubated overnight at 4° C. on a shaker.
On Assay day 2, the primary antibody solution was removed. Each plate was washed 3× times with 150 μL of 1×PBST (PBS+0.1% Tween 20) and incubated with 50 μL of secondary antibodies: Anti-Rabbit (LI-COR Biosciences #926-32211) and Anti-Mouse (LI-COR Biosciences #68070) at 1:800 dilution in Odyssey blocking buffer with Tween at room temperature on a shaker for 2 hours (protected from light). The secondary antibody solution as removed and each plate was washed with PBST 3× times. Any liquid remaining was discarded and the plate was imaged using the Licor Odyssey machine according to the manufacturer's instruction, using a set focus length at 3 mm and both 800 nm and 700 nm filters. The GAPDH normalized scan values for each well were divided by the average of vehicle wells to get the % of pERK inhibition. The IC50 values were then calculated with the Graph pad Prism software.

For assay [1], the target named is T1, recombinant human SOS1 polypeptide (amino acids 560-1049) (Homo sapiens, UniProt Q07889).
T1 construct: corresponding to amino acids 560-1049, expressed in E. Coli; made in house; host or cells: E. coli
T1 sequence (Q07889 560-1049): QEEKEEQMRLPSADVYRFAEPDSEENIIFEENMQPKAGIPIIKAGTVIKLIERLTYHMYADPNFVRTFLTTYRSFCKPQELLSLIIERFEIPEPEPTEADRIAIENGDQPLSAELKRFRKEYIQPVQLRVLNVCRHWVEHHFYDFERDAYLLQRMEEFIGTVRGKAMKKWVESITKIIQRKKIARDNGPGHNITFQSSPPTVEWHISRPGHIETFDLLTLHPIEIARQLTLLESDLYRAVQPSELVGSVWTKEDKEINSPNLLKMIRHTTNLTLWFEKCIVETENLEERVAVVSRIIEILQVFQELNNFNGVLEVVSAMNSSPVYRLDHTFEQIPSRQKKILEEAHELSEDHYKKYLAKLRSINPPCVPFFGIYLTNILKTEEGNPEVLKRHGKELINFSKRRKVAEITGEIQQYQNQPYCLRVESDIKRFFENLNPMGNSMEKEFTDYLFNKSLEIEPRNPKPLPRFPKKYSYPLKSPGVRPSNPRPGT
The experiment in a line: HTRF displacement assay: inhibition of labeled tracer binding to SOS1. The settings on record: Table A, Morrison equation for competitive binding. On the technique in general: Time-resolved FRET reads energy transfer from a long-lived donor to a nearby acceptor.

This note sets out measurements from patent US20250059182A1, “SOS1 INHIBITORS” (Mirati Therapeutics, Inc., priority 2021, published 2025).

The term IC50 denotes the concentration at which inhibition is half-maximal. The term Ki denotes a dissociation constant, usually derived from enzyme kinetics or from competition with a known ligand.

Like-named read-outs stand apart in the source and are kept apart here.

Regarding `Cc1c(C#N)cccc1[C@@H](C)Nc1nnc(C)c2cnc(N3C[C@@H]4CCCN(C)[C@@H]4C3)cc12` (single isomer, unassigned) [Example 6-6], the IC50 in the assay with pERK in MKN1 cells (Homo sapiens, MKN-1, Table B) was determined as 80.6 nM. Further, the Ki in assay [1] came to 1.36 nM.

Take `Cc1c(C#N)cccc1[C@@H](C)Nc1nnc(C)c2cnc(N3C[C@@H]4[C@H]3CCN4C)cc12` (single isomer, unassigned) [Example 6-8]: in the assay on pERK in MKN1 cells (Table B), the IC50 stood at 33.8 nM. In assay [1], the inhibition constant (Ki) was determined as 0.808 nM.

As to `Cc1c(C#N)cccc1[C@@H](C)Nc1nnc(C)c2cnc(N3C[C@H]4[C@@H]3CCN4C)cc12` (single isomer, unassigned) [Example 6-9], the IC50 with pERK in MKN1 cells (Table B) was found to be 69.4 nM. Also, the Ki in assay [1] was found to be 2.12 nM.

With `Cc1c(C#N)cccc1[C@@H](C)Nc1nnc(C)c2cnc(N3CC[C@@H]4[C@H]3CN4C)cc12` (single isomer, unassigned) [Example 6-10], the IC50 in the assay on pERK in MKN1 cells (Homo sapiens, MKN-1, Table B) stood at 44.4 nM. In assay [1], the Ki is 0.872 nM.

As to `Cc1c(C#N)cccc1[C@@H](C)Nc1nnc(C)c2cnc(N3CC[C@H]4[C@@H]3CN4C)cc12` (single isomer, unassigned) [Example 6-11], the IC50 with pERK in MKN1 cells (Homo sapiens, MKN-1, Table B) was found to be 199 nM. In addition, in assay [1], the Ki was 2.78 nM.

Regarding `Cc1c(C#N)cccc1[C@@H](C)Nc1nnc(C)c2cnc(N3C[C@H]4[C@@H]3CCN4C)cc12` (single isomer, unassigned) [Example 6-12], the IC50 in the assay with pERK in MKN1 cells (Table B) came to 13.7 nM. Further, in assay [1], the Ki came out at 0.24 nM.

As for `Cc1c(C#N)cccc1[C@@H](C)Nc1nnc(C)c2cnc(N3C[C@@H]4[C@H]3CCN4C)cc12` (single isomer, unassigned) [Example 6-13], the IC50 with pERK in MKN1 cells (Table B) was found to be 16.3 nM. Also, the Ki in assay [1] amounted to 0.615 nM.

Take `Cc1c(C#N)cccc1[C@@H](C)Nc1nnc(C)c2cc(F)c(N3C[C@H]4[C@@H]3CCN4C)cc12` (single isomer, unassigned) [Example 9-1]: the IC50 with pERK in MKN1 cells (Homo sapiens, MKN-1, Table B) was determined as 15.5 nM. Moreover, the Ki in assay [1] was 1 nM.

Turning to `Cc1c(C#N)cccc1[C@@H](C)Nc1nnc(C)c2cc(F)c(N3C[C@@H]4[C@H]3CCN4C)cc12` (single isomer, unassigned) [Example 9-2], the IC50 with pERK in MKN1 cells (Homo sapiens, MKN-1, Table B) is 30 nM. For the same molecule, the Ki in assay [1] was determined as 2 nM.

As to `CCN(c1cc2c(N[C@H](C)c3cccc(C#N)c3C)nnc(C)c2cn1)C1CCN(C)C1` (stereo in doubt) [Example 1-104, 3-((R)-1-((7-(ethyl((S)-1-methylpyrrolidin-3-yl)amino)-4-methylpyrido[3,4-d]pyridazin-1-yl)amino)ethyl)-2-methylbenzonitrile], the IC50 with pERK in MKN1 cells (Table B) turned out to be 75.5 nM. The Ki in assay [1] amounted to 0.901 nM.

In the case of `Cc1c(C#N)cccc1[C@@H](C)Nc1nnc(C)c2cnc(N3CC(C)(N4CCC4)C3)cc12` [Example 1-1, (R)-2-methyl-3-(1-((4-methyl-7-(3′-methyl-[1,3′-biazetidin]-1′-yl)pyrido[3,4-d]pyridazin-1-yl)amino)ethyl)benzonitrile], in the assay with pERK in MKN1 cells (Homo sapiens, MKN-1, Table B), the IC50 was 104 nM. In addition, in assay [1], the Ki was determined as 1.59 nM.

On to `CCN(CC)C1(C)CN(c2cc3c(N[C@H](C)c4cccc(C#N)c4C)nnc(C)c3cn2)C1` [Example 1-2, (R)-3-(1-((7-(3-(diethylamino)-3-methylazetidin-1-yl)-4-methylpyrido[3,4-d]pyridazin-1-yl)amino)ethyl)-2-methylbenzonitrile], for which, in the assay on pERK in MKN1 cells (Homo sapiens, MKN-1, Table B), the IC50 amounted to 126 nM. Besides, the Ki in assay [1] was 2.22 nM.

On to `CN[C@H]1CCN(c2cc3c(N[C@H](C)c4cccc(C#N)c4C)nnc(C)c3cn2)C1` [Example 1-3, 2-methyl-3-((R)-1-((4-methyl-7-((S)-3-(methylamino)pyrrolidin-1-yl)pyrido[3,4-d]pyridazin-1-yl)amino)ethyl)benzonitrile], for which the IC50 in the assay on pERK in MKN1 cells (Homo sapiens, MKN-1, Table B) was found to be 95.1 nM. Besides, the Ki in assay [1] is 1.42 nM.

Consider `Cc1c(C#N)cccc1[C@@H](C)Nc1nnc(C)c2cnc(N3CC(C)(N4CCCC4)C3)cc12` [Example 1-4, (R)-2-methyl-3-(1-((4-methyl-7-(3-methyl-3-(pyrrolidin-1-yl)azetidin-1-yl)pyrido[3,4-d]pyridazin-1-yl)amino)ethyl)benzonitrile], for which the IC50 with pERK in MKN1 cells (Homo sapiens, MKN-1, Table B) was found to be 62.6 nM. Moreover, in assay [1], the Ki turned out to be 1.22 nM.

On to `Cc1c(C#N)cccc1[C@@H](C)Nc1nnc(C)c2cnc(N(C)[C@H]3CCN(C)C3)cc12` [Example 1-5, 2-methyl-3-((R)-1-((4-methyl-7-(methyl((S)-1-methylpyrrolidin-3-yl)amino)pyrido[3,4-d]pyridazin-1-yl)amino)ethyl)benzonitrile], for which, in the assay with pERK in MKN1 cells (Homo sapiens, MKN-1, Table B), the IC50 was found to be 57.2 nM. For the same molecule, the Ki in assay [1] was determined as 0.683 nM.

On to `Cc1c(C#N)cccc1[C@@H](C)Nc1nnc(C)c2cnc(N(C)[C@@H]3CCN(C)C3)cc12` [Example 1-6, 2-methyl-3-((R)-1-((4-methyl-7-(methyl((R)-1-methylpyrrolidin-3-yl)amino)pyrido[3,4-d]pyridazin-1-yl)amino)ethyl)benzonitrile], for which the IC50 with pERK in MKN1 cells (Homo sapiens, MKN-1, Table B) stood at 41.6 nM. Besides, in assay [1], the Ki was determined as 1.56 nM.

With `CCN1CC2(C1)CN(c1cc3c(N[C@H](C)c4cccc(C#N)c4C)nnc(C)c3cn1)C2` [Example 1-7, (R)-3-(1-((7-(6-ethyl-2,6-diazaspiro[3.3]heptan-2-yl)-4-methylpyrido[3,4-d]pyridazin-1-yl)amino)ethyl)-2-methylbenzonitrile], the IC50 in the assay with pERK in MKN1 cells (Homo sapiens, MKN-1, Table B) was determined as 39.4 nM. Besides, the inhibition constant (Ki) in assay [1] worked out at 0.378 nM.

On to `Cc1c(C#N)cccc1[C@@H](C)Nc1nnc(C)c2cnc(N3CC[C@@H](N)C3)cc12` [Example 1-8, 3-((R)-1-((7-((R)-3-aminopyrrolidin-1-yl)-4-methylpyrido[3,4-d]pyridazin-1-yl)amino)ethyl)-2-methylbenzonitrile], for which the IC50 with pERK in MKN1 cells (Homo sapiens, MKN-1, Table B) was 274 nM. Further, the Ki in assay [1] was 1.54 nM.

In the case of `Cc1c(C#N)cccc1[C@@H](C)Nc1nnc(C)c2cnc(N3CC[C@H](N)C3)cc12` [Example 1-9, 3-((R)-1-((7-((S)-3-aminopyrrolidin-1-yl)-4-methylpyrido[3,4-d]pyridazin-1-yl)amino)ethyl)-2-methylbenzonitrile], the IC50 with pERK in MKN1 cells (Homo sapiens, MKN-1, Table B) is 396 nM. In addition, the Ki in assay [1] stood at 1.66 nM.

Regarding `Cc1c(C#N)cccc1[C@@H](C)Nc1nnc(C)c2cnc(N3CC4(CNC4)C3)cc12` [Example 1-10, (R)-2-methyl-3-(1-((4-methyl-7-(2,6-diazaspiro[3.3]heptan-2-yl)pyrido[3,4-d]pyridazin-1-yl)amino)ethyl)benzonitrile], in the assay on pERK in MKN1 cells (Homo sapiens, MKN-1, Table B), the IC50 came to 3280 nM. Also, in assay [1], the Ki was 0.541 nM.

Regarding `Cc1c(C#N)cccc1[C@@H](C)Nc1nnc(C)c2cnc(N3CCN(C)[C@@H](C)C3)cc12` [Example 1-11, 3-((R)-1-((7-((S)-3,4-dimethylpiperazin-1-yl)-4-methylpyrido[3,4-d]pyridazin-1-yl)amino)ethyl)-2-methylbenzonitrile], the IC50 with pERK in MKN1 cells (Homo sapiens, MKN-1, Table B) is 72.5 nM. The Ki in assay [1] came out at 1.62 nM.

Consider `Cc1c(C#N)cccc1[C@@H](C)Nc1nnc(C)c2cnc(N3CCN(C)[C@H](C)C3)cc12` [Example 1-12, 3-((R)-1-((7-((R)-3,4-dimethylpiperazin-1-yl)-4-methylpyrido[3,4-d]pyridazin-1-yl)amino)ethyl)-2-methylbenzonitrile], for which the half-maximal inhibitory concentration (IC50) with pERK in MKN1 cells (Homo sapiens, MKN-1, Table B) is 56.6 nM. The Ki in assay [1] is 1.01 nM.

In the case of `CCN1CCN(c2cc3c(N[C@H](C)c4cccc(C#N)c4C)nnc(C)c3cn2)C[C@H]1C` [Example 1-13, 3-((R)-1-((7-((R)-4-ethyl-3-methylpiperazin-1-yl)-4-methylpyrido[3,4-d]pyridazin-1-yl)amino)ethyl)-2-methylbenzonitrile], the IC50 in the assay with pERK in MKN1 cells (Homo sapiens, MKN-1, Table B) stood at 47.3 nM. Besides, the Ki in assay [1] amounted to 0.82 nM.
